Measured values taken from patent US11083197B2, “Herbicidal composition comprising chromone derivatives and a method for weed control” (INVESTIGACIONES BIOLÓGICAS EN AGROQUÍMICOS ROSARIO S.A., priority 2015, dated 2021).

Legend:
cucumber cotyledon disks = assay: Detection and measurement of reactive oxygen species (DCFDA); type: cell-based; conditions: 300 μM; for ROS levels: 16 h darkness then high light intensity 5 h; for ROS generation: complete darkness for 30 h
Experimental: ROS cellular localization was determined by confocal microscopy using the fluorescent probe 2′,7′-dichlorofluorescein diacetate (DCFDA). Cucumber cotyledon disks (1 cm) were treated as described for the electrolyte leakage assay. Five disks were placed in 5 cm-Petri plates and exposed to different dilutions of compounds of formulas III and IV (0, 100 and 300 μM). Disks were incubated in darkness for 16 h before exposure to high light intensity for 5 h, or in darkness for 30 h. As positive control, disks were exposed to the same solvent as treated tissues but with 10 mM hydrogen peroxide (H2O2) for 30 min in the light. After each treatment, they were vacuum-infiltrated in the dark with 50 μM DCFDA in 10 mM Tris-HCl pH 7.5, and ROS were visualized in an Eclipse TE-2000-E2 Nikon confocal microscope with excitation at 488 nm and emission at 515/530 nm. Green fluorescence intensities were quantified using the image processing package Fiji of ImageJ software.

[1] = tested on: ryegrass, barnyardgrass, crabgrass, foxtail, millet, morningglory and velvetleaf; assay: Pre-emergence bioassay in Petri dishes against different weeds; type: in vivo; conditions: 0.5 and 1.0 mM
Experimental: Compounds of Formulas III and IV above were tested in a pre-emergence bioassay (in Petri dishes) against different weeds at 0.5 and 1.0 mM. The seeds of different weeds were placed in Petri dishes with a filter paper and 4 mL of an aqueous solution of each compound or commercial herbicide.
Plant length was measured at 7 days of incubation.

[2] = tested on: crabgrass (D. sanguinalis), barnyardgrass (E. crus-galli) and velvetleaf (A. theophrasti); assay: Greenhouse postemergence spray, 4.0 kg ai/ha; type: in vivo
Experimental: Aqueous solution containing commercial standard of pure compound of Formula IV was prepared and sprayed on crabgrass (D. sanguinalis), barnyardgrass (E. crus-galli) and velvetleaf (A. theophrasti). Plants were sprayed at 2-3 true leaf stage (13-16-day-old plants). For better dissolution of compounds in water AGRIDEX (1% v/v) and acetone (1% v/v) were added to spray solutions. Final rate of compounds was 4.0 kg ai ha^−1. Plant height and dry weight were measured at 11 days after spray. Results were compared with the bio herbicide pelargonic acid at 4.0 kg ai ha^−1.

[3] = tested on: green alga Chlamydomonas reinhardtii; conditions: equimolar concentrations and equal UV-A doses; cited from earlier work

Compound	ROS levels (cucumber cotyledon disks)	ROS generation (cucumber cotyledon disks)	effect on growth and germination of different weeds [1]	kind of postemergence herbicidal activity [2]	height and biomass of sprayed weeds versus control plants ([2]; 11 days after spray)	symptoms on treated plants ([2]; 11 days after treatment)	phototoxicity and photomutagenicity compared with bergapten [3]
COc1c2occc2c(OC)c2c(=O)cc(C)oc12 [Formula III, 4,9-dimethoxy-7-methyl-5H-furo[3,2-g]chromen-5-one]	significantly higher than in the control	not detected	strongly interfered				
COc1c2ccoc2cc2oc(C)cc(=O)c12 [Formula IV, 4-methoxy-7-methyl-5H-furo[3,2-g]chromen-5-one]	significantly higher than in the control	not detected	strongly interfered	by contact and non-selective	significantly smaller	necrotic lesions and some abnormally formed leaves	much less phototoxic and photomutagenic than bergapten
